Source: PubChem BioAssay AID2060487 (Molecular Pharmacology Branch, DTP, NCI, 2025)

Test system: 997537-175-T-J1-PDC complex spheroid viability
Assay: Anticancer human tumor 997537-175-T-J1-PDC patient-derived colon adenocarcinoma cell line growth inhibition [GQUAD]
Conditions: for IC50: curve of first compound; for viability, T/C: stronger effect = lower value
In short: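 Multi-cell-type spheroids of tumor cells with HUVEC and mesenchymal stem cells, treated with drug combinations. Concentrations descend in half-log steps from near clinical Cmax, or from 10 microM where Cmax is unknown; viability read-out.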

[1] = second compound 0.0316 µM, first compound 0.0316 µM
[2] = second compound 0.0316 µM, first compound 0.1 µM
[3] = second compound 0.0316 µM, first compound 0.316 µM
[4] = second compound 0.0316 µM, first compound 1 µM
[5] = second compound 0.0316 µM, first compound 3.16 µM
[6] = second compound 0.0316 µM, first compound 10 µM
[7] = second compound 0.1 µM, first compound 0.0316 µM
[8] = second compound 0.1 µM, first compound 0.1 µM
[9] = second compound 0.1 µM, first compound 0.316 µM
[10] = second compound 0.1 µM, first compound 1 µM
[11] = second compound 0.1 µM, first compound 3.16 µM
[12] = second compound 0.1 µM, first compound 10 µM
[13] = second compound 0.316 µM, first compound 0.0316 µM
[14] = second compound 0.316 µM, first compound 0.1 µM
[15] = second compound 0.316 µM, first compound 0.316 µM
[16] = second compound 0.316 µM, first compound 1 µM
[17] = second compound 0.316 µM, first compound 3.16 µM
[18] = second compound 0.316 µM, first compound 10 µM
[19] = second compound 1 µM, first compound 0.0316 µM
[20] = second compound 1 µM, first compound 0.1 µM
[21] = second compound 1 µM, first compound 0.316 µM
[22] = second compound 1 µM, first compound 1 µM
[23] = second compound 1 µM, first compound 3.16 µM
[24] = second compound 1 µM, first compound 10 µM
[25] = second compound 3.16 µM, first compound 0.0316 µM
[26] = second compound 3.16 µM, first compound 0.1 µM
[27] = second compound 3.16 µM, first compound 0.316 µM
[28] = second compound 3.16 µM, first compound 1 µM
[29] = second compound 3.16 µM, first compound 3.16 µM
[30] = second compound 3.16 µM, first compound 10 µM
[31] = second compound 10 µM, first compound 0.0316 µM
[32] = second compound 10 µM, first compound 0.1 µM
[33] = second compound 10 µM, first compound 0.316 µM
[34] = second compound 10 µM, first compound 1 µM
[35] = second compound 10 µM, first compound 3.16 µM
[36] = second compound 10 µM, first compound 10 µM
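Also: spheroids exposed to the agents for 7 days.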
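For viability, T/C in this document: 100% = DMSO vehicle control viability.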

Which results are given for COc1ccc([C@@H](O)c2cc(-c3ncnc4cc(N5CCOCC5)ccc34)c(F)cc2Cl)nn1 + Cc1cnc(CNC(=O)c2c(=O)c3ccc(N4CCCN(C)CC4)nc3n3c2sc2ccccc23)cn1?
IC50 (second compound 0.0316 µM): > 10 µM; IC50 (second compound 0.1 µM): > 10 µM; IC50 (second compound 0.316 µM): > 10 µM; IC50 (second compound 1 µM): 9.86 µM; IC50 (second compound 3.16 µM): > 10 µM; IC50 (second compound 10 µM): > 10 µM; viability, T/C [1]: 102%; viability, T/C [2]: 93.6%; viability, T/C [3]: 100%; viability, T/C [4]: 63.3%; viability, T/C [5]: 81.1%; viability, T/C [6]: 63.9%; viability, T/C [7]: 97.5%; viability, T/C [8]: 94.7%; viability, T/C [9]: 73.9%; viability, T/C [10]: 84.7%; viability, T/C [11]: 77.2%; viability, T/C [12]: 86.9%; viability, T/C [13]: 87.3%; viability, T/C [14]: 106%; viability, T/C [15]: 107%; viability, T/C [16]: 94.8%; viability, T/C [17]: 113%; viability, T/C [18]: 65.2%; viability, T/C [19]: 82.3%; viability, T/C [20]: 87.5%; viability, T/C [21]: 89.3%; viability, T/C [22]: 87.8%; viability, T/C [23]: 98.1%; viability, T/C [24]: 49.5%; viability, T/C [25]: 81.7%; viability, T/C [26]: 88.8%; viability, T/C [27]: 98.1%; viability, T/C [28]: 107%; viability, T/C [29]: 98.2%; viability, T/C [30]: 71.2%; viability, T/C [31]: 85.5%; viability, T/C [32]: 75.9%; viability, T/C [33]: 86.3%; viability, T/C [34]: 117%; viability, T/C [35]: 86.9%; viability, T/C [36]: 72.8%

Which results are given for O=c1[nH]cc(F)c(=O)[nH]1 + Cc1cnc(CNC(=O)c2c(=O)c3ccc(N4CCCN(C)CC4)nc3n3c2sc2ccccc23)cn1?
IC50 (second compound 0.0316 µM): > 10 µM; IC50 (second compound 0.1 µM): > 10 µM; IC50 (second compound 0.316 µM): > 10 µM; IC50 (second compound 1 µM): > 10 µM; IC50 (second compound 3.16 µM): > 10 µM; IC50 (second compound 10 µM): > 10 µM; viability, T/C [1]: 96.2%; viability, T/C [2]: 87.6%; viability, T/C [3]: 85.1%; viability, T/C [4]: 92.8%; viability, T/C [5]: 89.6%; viability, T/C [6]: 76.2%; viability, T/C [7]: 75.6%; viability, T/C [8]: 82.8%; viability, T/C [9]: 92.8%; viability, T/C [10]: 82.8%; viability, T/C [11]: 102%; viability, T/C [12]: 83%; viability, T/C [13]: 75.9%; viability, T/C [14]: 74.3%; viability, T/C [15]: 84%; viability, T/C [16]: 105%; viability, T/C [17]: 110%; viability, T/C [18]: 111%; viability, T/C [19]: 88.1%; viability, T/C [20]: 70.1%; viability, T/C [21]: 84.9%; viability, T/C [22]: 109%; viability, T/C [23]: 67.2%; viability, T/C [24]: 82.6%; viability, T/C [25]: 78.4%; viability, T/C [26]: 96.1%; viability, T/C [27]: 87.8%; viability, T/C [28]: 90.1%; viability, T/C [29]: 82.7%; viability, T/C [30]: 92.7%; viability, T/C [31]: 73.7%; viability, T/C [32]: 95.3%; viability, T/C [33]: 98.3%; viability, T/C [34]: 75.2%; viability, T/C [35]: 107%; viability, T/C [36]: 90.6%

CC[C@@]1(O)C(=O)OCc2c1cc1n(c2=O)Cc2cc3c(CN(C)C)c(O)ccc3nc2-1 + Cc1cnc(CNC(=O)c2c(=O)c3ccc(N4CCCN(C)CC4)nc3n3c2sc2ccccc23)cn1 was tested. Which IC50 (second compound 0.0316 µM) did it give?
The IC50 was > 0.316 µM.

What about the IC50 (second compound 0.1 µM) of the same compound?
The IC50 was > 0.316 µM.

And the IC50 (second compound 0.316 µM)?
The IC50 was > 0.316 µM.

What about the IC50 (second compound 1 µM) of the same compound?
Its IC50 is > 0.316 µM.

And the IC50 (second compound 3.16 µM)?
Its IC50 is > 0.316 µM.

What about the IC50 (second compound 10 µM) of the same compound?
Its IC50 is > 0.316 µM.

What about the viability, T/C (second compound 0.0316 µM, first compound 0.000999 µM) of the same compound?
Its viability, T/C is 108%.

What about the viability, T/C (second compound 0.0316 µM, first compound 0.00316 µM) of the same compound?
Its viability, T/C is 104%.

What about the viability, T/C (second compound 0.0316 µM, first compound 0.00999 µM) of the same compound?
The viability, T/C was 97.8%.

And the viability, T/C [1]?
The viability, T/C was 82%.

And the viability, T/C (second compound 0.0316 µM, first compound 0.0999 µM)?
Its viability, T/C is 72.3%.

What about the viability, T/C [3] of the same compound?
Its viability, T/C is 80.4%.

What about the viability, T/C (second compound 0.1 µM, first compound 0.000999 µM) of the same compound?
The viability, T/C was 97.8%.

What about the viability, T/C (second compound 0.1 µM, first compound 0.00316 µM) of the same compound?
The viability, T/C was 97.5%.

And the viability, T/C (second compound 0.1 µM, first compound 0.00999 µM)?
Its viability, T/C is 92.7%.

What about the viability, T/C [7] of the same compound?
Its viability, T/C is 90.1%.

What about the viability, T/C (second compound 0.1 µM, first compound 0.0999 µM) of the same compound?
The viability, T/C was 97.5%.

And the viability, T/C [9]?
The viability, T/C was 58%.

And the viability, T/C (second compound 0.316 µM, first compound 0.000999 µM)?
The viability, T/C was 92.8%.

What about the viability, T/C (second compound 0.316 µM, first compound 0.00316 µM) of the same compound?
Its viability, T/C is 88.8%.

And the viability, T/C (second compound 0.316 µM, first compound 0.00999 µM)?
Its viability, T/C is 105%.

What about the viability, T/C [13] of the same compound?
The viability, T/C was 85%.

And the viability, T/C (second compound 0.316 µM, first compound 0.0999 µM)?
Its viability, T/C is 98.8%.

And the viability, T/C [15]?
The viability, T/C was 66.3%.

What about the viability, T/C (second compound 1 µM, first compound 0.000999 µM) of the same compound?
The viability, T/C was 89.8%.

And the viability, T/C (second compound 1 µM, first compound 0.00316 µM)?
The viability, T/C was 93.5%.

What about the viability, T/C (second compound 1 µM, first compound 0.00999 µM) of the same compound?
The viability, T/C was 101%.

And the viability, T/C [19]?
The viability, T/C was 93.5%.

What about the viability, T/C (second compound 1 µM, first compound 0.0999 µM) of the same compound?
Its viability, T/C is 108%.

What about the viability, T/C [21] of the same compound?
Its viability, T/C is 59%.

What about the viability, T/C (second compound 3.16 µM, first compound 0.000999 µM) of the same compound?
Its viability, T/C is 75%.

What about the viability, T/C (second compound 3.16 µM, first compound 0.00316 µM) of the same compound?
The viability, T/C was 104%.

What about the viability, T/C (second compound 3.16 µM, first compound 0.00999 µM) of the same compound?
The viability, T/C was 118%.

And the viability, T/C [25]?
The viability, T/C was 89.7%.

And the viability, T/C (second compound 3.16 µM, first compound 0.0999 µM)?
Its viability, T/C is 96.1%.

What about the viability, T/C [27] of the same compound?
The viability, T/C was 58.8%.

What about the viability, T/C (second compound 10 µM, first compound 0.000999 µM) of the same compound?
Its viability, T/C is 97.7%.

What about the viability, T/C (second compound 10 µM, first compound 0.00316 µM) of the same compound?
The viability, T/C was 108%.

What about the viability, T/C (second compound 10 µM, first compound 0.00999 µM) of the same compound?
The viability, T/C was 130%.

And the viability, T/C [31]?
Its viability, T/C is 69%.

What about the viability, T/C (second compound 10 µM, first compound 0.0999 µM) of the same compound?
The viability, T/C was 94.5%.

And the viability, T/C [33]?
Its viability, T/C is 70.2%.
